Experimental data reported in patent US7081538B1, “Substituted isoxazolines and their use as antibacterial agents” (priority 1999, dated 2006).
In brackets after ≈: the same amount, converted by molar mass.

Tests used:
Assay type in all cases: cell-based
[1] = system: Staphylococcus aureus Oxford; assay: MIC by agar-dilution, Staphylococcus aureus Oxford; conditions: inoculum 10^4 CFU/spot, 37° C., 24 hours
Procedure: (§1) The following results were obtained on a standard in-vitro test system. The activity is described in terms of the minimum inhibitory concentration (MIC) determined by the agar-dilution technique with an inoculum size of 10^4 CFU/spot. Typically, compounds are active in the range 0.01 to 256 μg/ml.
(§2) Staphylococci were tested on agar, using an inoculum of 10^4 CFU/spot and an incubation temperature of 37° C. for 24 hours—standard test conditions for the expression of methicillin resistance.

[2] = system: Staphylococcus aureus Novb. Res (Novobiocin resistant); assay: MIC by agar-dilution, Staphylococcus aureus Novb. Res; conditions: inoculum 10^4 CFU/spot, 37° C., 24 hours
Procedure: as §1, §2

[3] = system: Staphylococcus aureus MRQR (methicillin resistant quinolone resistant); assay: MIC by agar-dilution, Staphylococcus aureus MRQR; conditions: inoculum 10^4 CFU/spot, 37° C., 24 hours
Procedure: as §1, §2

[4] = system: Coagulase Negative Staphylococci MS (methicillin sensitive); assay: MIC by agar-dilution, Coagulase Negative Staphylococci MS; conditions: inoculum 10^4 CFU/spot, 37° C., 24 hours
Procedure: as §1, §2

[5] = system: Coagulase Negative Staphylococci MR (methicillin resistant); assay: MIC by agar-dilution, Coagulase Negative Staphylococci MR; conditions: inoculum 10^4 CFU/spot, 37° C., 24 hours
Procedure: as §1, §2

[6] = system: Streptococcus pyogenes C203; assay: MIC by agar-dilution, Streptococcus pyogenes C203; conditions: agar with 5% defibrinated horse blood, 10^4 CFU/spot, 37° C., 5% carbon dioxide, 48 hours
Procedure: as §1
(§3) Streptococci and enterococci were tested on agar supplemented with 5% defibrinated horse blood, an inoculum of 10^4 CFU/spot and an incubation temperature of 37° C. in an atmosphere of 5% carbon dioxide for 48 hours—blood is required for the growth of some of the test organisms.

[7] = system: Enterococcus faecalis; assay: MIC by agar-dilution, Enterococcus faecalis; conditions: agar with 5% defibrinated horse blood, 10^4 CFU/spot, 37° C., 5% carbon dioxide, 48 hours
Procedure: as §1, §3

[8] = system: Bacillus subtilis; assay: MIC by agar-dilution, Bacillus subtilis; conditions: inoculum 10^4 CFU/spot
Procedure: as §1

## O=C(CO)N1CC=C(c2ccc(C3=NOC(CNc4ccon4)C3)cc2)CC1 (racemic) [Example 1, (5RS)-3-(4-(1-Hydroxyacetyl-1,2,5,6-tetrahydropyrid-4-yl)phenyl)-5-(3-isoxazolylaminomethyl)-4,5-dihydro-isoxazole]
[1]
  MIC: 2 mg/L (≈ 5.23 µM)
[2]
  MIC: 4 mg/L (≈ 10.5 µM)
[3]
  MIC: 4 mg/L (≈ 10.5 µM)
[4]
  MIC: 1 mg/L (≈ 2.61 µM)
[5]
  MIC: 2 mg/L (≈ 5.23 µM)
[6]
  MIC: 8 mg/L (≈ 20.9 µM)
[7]
  MIC: 8 mg/L (≈ 20.9 µM)
[8]
  MIC: 1 mg/L (≈ 2.61 µM)
